Experimental data taken from the supplement of paper PMC4932681.

Tests used:
Test in all cases: viability inhibition at highest dose (% inhibition); higher = more growth inhibition
ZR-75-1 Tam2 = conditions: 4-OH-tamoxifen in medium 1 µM; 72 h
Procedure: (§1)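 Percent inhibition of viability (CellTiter-Glo, 72 h) at the highest tested concentration (D5), normalised to DMSO (0%) and 100 µM benzethonium chloride (100%). Resistant lines and the 'in 1µM tamoxifen' arms were tested in 1 µM 4-OH-tamoxifen.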

BT-474 = conditions: 72 h
Procedure: as §1

MCF-7 = conditions: 72 h
Procedure: as §1

ZR-75-1 = conditions: 72 h
Procedure: as §1

T-47D Tam2 = conditions: 4-OH-tamoxifen in medium 1 µM; 72 h
Procedure: as §1

T-47D Tam1 = conditions: 4-OH-tamoxifen in medium 1 µM; 72 h
Procedure: as §1

ZR-75-1 Tam1 = conditions: 4-OH-tamoxifen in medium 1 µM; 72 h
Procedure: as §1

BT-474 Tam1 = conditions: 4-OH-tamoxifen in medium 1 µM; 72 h
Procedure: as §1

T-47D = conditions: 72 h
Procedure: as §1

MCF-7 Tam1 = conditions: 4-OH-tamoxifen in medium 1 µM; 72 h
Procedure: as §1

BT-474 Tam2 = conditions: 4-OH-tamoxifen in medium 1 µM; 72 h
Procedure: as §1

Row | Structure (SMILES) | viability inhibition at highest dose (ZR-75-1 Tam2) | viability inhibition at highest dose (BT-474; 4-OH-tamoxifen in medium 0 µM) | viability inhibition at highest dose (BT-474; 4-OH-tamoxifen in medium 1 µM) | viability inhibition at highest dose (MCF-7; 4-OH-tamoxifen in medium 0 µM) | viability inhibition at highest dose (MCF-7; 4-OH-tamoxifen in medium 1 µM) | viability inhibition at highest dose (ZR-75-1; 4-OH-tamoxifen in medium 0 µM) | viability inhibition at highest dose (ZR-75-1; 4-OH-tamoxifen in medium 1 µM) | viability inhibition at highest dose (T-47D Tam2) | viability inhibition at highest dose (T-47D Tam1) | viability inhibition at highest dose (ZR-75-1 Tam1) | viability inhibition at highest dose (BT-474 Tam1) | viability inhibition at highest dose (T-47D; 4-OH-tamoxifen in medium 0 µM) | viability inhibition at highest dose (T-47D; 4-OH-tamoxifen in medium 1 µM) | viability inhibition at highest dose (MCF-7 Tam1) | viability inhibition at highest dose (BT-474 Tam2)
1 | CCCCCCCCc1ccc(CCC(N)(CO)CO)cc1 [Fingolimod] (drug 10000 nM) | 55.5 | 94.4 | 96.6 | 94.6 | 71.4 | 40.8 | 52.5 | 59.1 | 62.4 | 45.3 | 96.8 | 69.4 | 91.9 | 11.9 | 95.2
2 | Nc1nc2[nH]cc(CCc3ccc(C(=O)N[C@@H](CCC(=O)O)C(=O)O)cc3)c2c(=O)[nH]1 [Pemetrexed] (drug 10000 nM) | -6.3 | -2.99 | -11.2 | -15.5 | 14.3 | -12.7 | -4.01 | 9.3 | -2.82 | 1.51 | -2.78 | -12.4 | 8.3 | -1.81 | 4.1
3 | Cn1cnc2c(F)c(Nc3ccc(Br)cc3Cl)c(C(=O)NOCCO)cc21 [Selumetinib  (AZD6244)] (drug 10000 nM) | 3.53 | -0.443 | 29.7 | 13.7 | 16.6 | -8.87 | -4.69 | 10.8 | 19.9 | 2.2 | 21.1 | -3.23 | -12.3 | 11.7 | -2.62
4 | O=c1[nH]cc(F)c(=O)[nH]1 [Fluorouracil] (drug 10000 nM) | 17.1 | -7.65 | -2.76 | 35.1 | 4.26 | 16.4 | 15.2 | 9.76 | 5.54 | 8.57 | 1.71 | 13.4 | 10.1 | 8.84 | 0.595
5 | CC(C)n1cnc2c(NCCc3ccc(O)cc3)nc(-c3csc4ccccc34)nc21 [StemRegenin 1] (drug 10000 nM) | 24.2 | 25.1 | 96.4 | 51.4 | 65.3 | 8.1 | 26.6 | 54.1 | 41.9 | 19.8 | 95.2 | 35.4 | 50.4 | 18.6 | 89
6 | O=C(O)C1(C(=O)O)CCC1.[NH2-].[NH2-].[Pt+2] [Carboplatin] (drug 10000 nM) | -0.671 | -12.2 | -19 | 1.69 | 6.48 | -16.2 | -1.87 | 1.93 | -4.98 | 2.36 | -1.28 | -16.3 | -18 | -6.52 | 3.89
7 | O=C(O)C(=O)O.[NH-][C@@H]1CCCC[C@H]1[NH-].[Pt+2] [Oxaliplatin] (drug 10000 nM) | 5.48 | -9.5 | -21.1 | 4.06 | 3.34 | 2.13 | -0.0598 | 5.52 | 1.11 | 4.08 | -7.39 | -7.69 | -13.3 | -5.32 | 1.63
8 | COc1cccc2c1C(=O)c1c(O)c3c(c(O)c1C2=O)C[C@@](O)(C(=O)CO)C[C@@H]3O[C@H]1C[C@H](N)[C@H](O)[C@H](C)O1 [Doxorubicin] (drug 1000 nM) | 73.5 | 65 | 90.4 | 76.9 | 66.1 | 62.2 | 82.4 | 72.7 | 77.1 | 76.4 | 68.5 | 73 | 76.2 | 56.6 | 16.9
9 | CCS(=O)(=O)c1cccc(-c2cc(C(=O)NC3CCN(C)CC3)c(C)c3[nH]c4ncc(C)cc4c23)c1 [TAK-901] (drug 1000 nM) | -10.7 | -6.02 | 30.4 | 16.5 | 24.8 | -12.6 | -15.9 | 34.6 | 66.5 | -9.15 | 30.7 | 40.7 | 18.2 | 9.8 | 25.1
10 | O=P(O)(O)C(O)(Cn1ccnc1)P(=O)(O)O [Zoledronic acid] (drug 10000 nM) | -9.06 | -0.0303 | -3.42 | -12.6 | -12.2 | -6.71 | -4.06 | 1.06 | -5.82 | -0.251 | 2.75 | -11.4 | -6.56 | -6.7 | -6.19
11 | O=P1(NCCCl)OCCCN1CCCl (stereo not given) [Ifosfamide] (drug 10000 nM) | -4.83 | -8.04 | 1.1 | -17.9 | 17.3 | -8.49 | -7.06 | 1.35 | -0.131 | 2.45 | 2.59 | -16.4 | -8.32 | -4.9 | -0.857
12 | C[C@@H]1C=C2C(=O)O[C@@H]3CC[C@H](C1)[C@]23O [Galiellalactone] (drug 50000 nM) | 1.46 | -0.142 | 54.5 | 72.3 | 14.4 | -10.5 | -3.25 | 40.6 | 41.4 | 4.34 | 50.9 | 59.8 | 54.7 | -3.64 | 3.76
13 | CO[C@H]1C[C@@H]2CC[C@@H](C)[C@@](O)(O2)C(=O)C(=O)N2CCCC[C@H]2C(=O)O[C@H]([C@H](C)C[C@@H]2CC[C@@H](OP(C)(C)=O)[C@H](OC)C2)CC(=O)[C@H](C)/C=C(\C)[C@@H](O)[C@@H](OC)C(=O)[C@H](C)C[C@H](C)/C=C/C=C/C=C/1C [Ridaforolimus] (drug 100 nM) | 39.5 | 19.8 | 6.43 | 49.7 | 37.1 | 37.8 | 30.1 | 28.2 | 33.3 | 35.9 | 23.2 | 33.4 | 21.6 | 17.7 | 22
14 | CC(C)Cn1cnc2c(N)nc3ccccc3c21 [Imiquimod] (drug 10000 nM) | -8.03 | 9.75 | 18.4 | -14.1 | 15.9 | 0.432 | 2.78 | 15.3 | 8.8 | -4.93 | 8.22 | 16.1 | 10.4 | 5.29 | 11.8
15 | CC1(C)CNc2cc(NC(=O)c3cccnc3NCc3ccncc3)ccc21 [Motesanib  (AMG-706)] (drug 10000 nM) | -1.27 | -7.25 | -16.2 | -2.53 | 1.3 | -8.12 | -2.93 | 12.6 | 9.4 | -1.35 | -2.75 | -15.1 | -10.7 | -1.95 | -2.84
16 | Cn1cncc1[C@@](N)(c1ccc(Cl)cc1)c1ccc2c(c1)c(-c1cccc(Cl)c1)cc(=O)n2C [Tipifarnib  (Zarnestra)] (drug 10000 nM) | 57.7 | 42.6 | 77.3 | 64.4 | 77.7 | 51 | 50.5 | 44.6 | 55.8 | 57.6 | 85.4 | 28.4 | 14.2 | 42 | 78.5
17 | Cc1ccc(F)c(NC(=O)Nc2ccc(-c3cccc4[nH]nc(N)c34)cc2)c1 [Linifanib (ABT-869)] (drug 1000 nM) | -0.131 | -5.83 | -19 | -7.63 | 4.89 | -3.03 | -10.3 | -13.7 | 5.32 | -5.49 | -15 | -7.82 | -2.26 | -5.44 | -11.2
18 | CC1=C(/C=C/C(C)=C/C=C/C(C)=C/C(=O)O)C(C)(C)CCC1 [Tretinoin] (drug 10000 nM) | 4.01 | -1.01 | -18.6 | -12.3 | 14.5 | 0.707 | -8.55 | 14.5 | 14.5 | 5.21 | -5.43 | 3.78 | 2.8 | 15.9 | 7.81
19 | Cc1ccc(NC(=O)c2ccc(CN3CCN(C)CC3)cc2)cc1Nc1nc(-c2cccnc2)cs1 [Masitinib] (drug 10000 nM) | 32.8 | 21.2 | 71.6 | 39.5 | 40.7 | 9.35 | 20.3 | 40.7 | 34.5 | 18.2 | 93.1 | 42 | 57.1 | 26.5 | 87
20 | C#Cc1cccc(Nc2ncnc3cc(OCCOC)c(OCCOC)cc23)c1 [Erlotinib] (drug 10000 nM) | 10.9 | 43 | 94.5 | 4.3 | 0.353 | 3.58 | 12.2 | 40 | 39.8 | 14.6 | 94.4 | 20.8 | 9 | 12.5 | 87.1
21 | CNC(=O)c1ccccc1Sc1ccc2c(/C=C/c3ccccn3)n[nH]c2c1 [Axitinib] (drug 10000 nM) | 22.8 | 22 | 41.5 | 33 | 33.2 | 3.79 | 19.2 | 27.1 | 24.7 | 9.18 | 41.2 | 38.7 | 20.7 | 25 | 23.2
22 | C=CCNC1=C2C[C@@H](C)C[C@H](OC)[C@H](O)[C@@H](C)/C=C(\C)[C@H](OC(N)=O)[C@@H](OC)/C=C\C=C(/C)C(=O)NC(=CC1=O)C2=O [Tanespimycin  (17-AAG)] (drug 10000 nM) | 48.8 | 52.1 | 81.8 | 70 | 51.1 | 31 | 45.4 | 43.5 | 43.6 | 45.8 | 74.9 | 55.6 | 43.3 | 35.7 | 74.3
23 | COc1cc(Nc2ncc(F)c(Nc3ccc4c(n3)NC(=O)C(C)(C)O4)n2)cc(OC)c1OC [Tamatinib (R406)] (drug 10000 nM) | -2.25 | -9.68 | -22.1 | -1.78 | 4.31 | -7.27 | -4.27 | 9.45 | 14.3 | 0.732 | -6.1 | -10 | -10.3 | -9.69 | -9.51
24 | CN(C)CCOc1ccc(/C(=C(/CCCl)c2ccccc2)c2ccccc2)cc1 [Toremifene (citrate)] (drug 10000 nM) | 25.1 | 25.6 | 82.9 | 19.2 | 69.3 | 3.59 | 24.4 | 62 | 45.2 | 18.3 | 95.2 | 9.04 | 1.56 | 35.5 | 99.1
25 | CCc1c2c(nc3ccc(OC(=O)N4CCC(N5CCCCC5)CC4)cc13)-c1cc3c(c(=O)n1C2)COC(=O)[C@]3(O)CC [Irinotecan] (drug 10000 nM) | 44.3 | -20.2 | -25.4 | 23.7 | 23.7 | 41.6 | 30 | 23.3 | 34.4 | 35 | -9.22 | 42.8 | -0.292 | -8.36 | -11
26 | Cc1cn(-c2cc(NC(=O)c3ccc(C)c(Nc4nccc(-c5cccnc5)n4)c3)cc(C(F)(F)F)c2)cn1 [Nilotinib] (drug 10000 nM) | -2.53 | -6.7 | 1.42 | 5.79 | 5.88 | -11.8 | -6.98 | 2.08 | -0.169 | 2.47 | 22.9 | -17.5 | -20.8 | -8.69 | 1.02
27 | CO[C@@]12[C@H](COC(N)=O)C3=C(C(=O)C(C)=C(N)C3=O)N1C[C@@H]1N[C@@H]12 [Mitomycin C] (drug 10000 nM) | 23.4 | -12.3 | -7 | 16.2 | 11.4 | 25.5 | 23.7 | 10.8 | 33.5 | 28.3 | 0.772 | 31.4 | -4.69 | -6.06 | 0.827
